The target of assay [1] is T1, Recombinant barley α-amylase isozyme 1 (AMY1) (Hordeum vulgare, UniProt P00693).
T1 construct: made in house
Description: Inhibition of barley α-amylase isozyme 1 activity towards DP17 amylose. It is filed as biochemical. An excerpt: (§1) Porcine pancreatic α-amylase (PPA) and bovine serum albumin (BSA) were purchased from Sigma. Amylose EX-1 (DP17; average degree of polymerization 17) was purchased from Hayashibara Chemical Laboratories (Okayama, Japan). Recombinant barley α-amylase isozyme 1 (AMY1) was produced and purified as described.^23 An aliquot of the porcine pancreatic x-amylase (PPA) crystalline suspension (in ammonium sulfate) was dialyzed extensively against the assay buffer without BSA. The enzyme concentration was determined by aid of amino acid analysis as determined using an LKB model Alpha Plus amino acid analyzer. […] Six different final inhibitor concentrations were used in the range 1 μM-5 mM. The inhibitor was pre-incubated with enzyme for 5 min at 37° C. before addition of substrate.

The target in assay [2] is T2, porcine pancreatic α-amylase (PPA) (Sus scrofa, UniProt P00690).
T2 construct: purchased Sigma
T2 sequence (P00690 16-511): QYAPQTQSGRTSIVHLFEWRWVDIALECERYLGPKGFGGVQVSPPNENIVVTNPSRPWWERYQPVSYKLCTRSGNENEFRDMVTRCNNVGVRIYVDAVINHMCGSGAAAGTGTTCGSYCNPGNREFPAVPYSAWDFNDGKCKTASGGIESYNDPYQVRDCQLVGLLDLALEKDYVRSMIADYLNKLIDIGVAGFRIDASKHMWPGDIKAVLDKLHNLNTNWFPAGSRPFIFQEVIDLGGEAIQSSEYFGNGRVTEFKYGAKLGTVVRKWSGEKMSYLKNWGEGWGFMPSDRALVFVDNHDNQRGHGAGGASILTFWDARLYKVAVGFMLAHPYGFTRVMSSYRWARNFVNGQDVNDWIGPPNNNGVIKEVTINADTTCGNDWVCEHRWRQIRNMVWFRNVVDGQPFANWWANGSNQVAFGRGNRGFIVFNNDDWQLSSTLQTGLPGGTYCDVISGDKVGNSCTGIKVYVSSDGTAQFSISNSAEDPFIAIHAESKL
Briefly: Inhibition of porcine pancreatic α-amylase activity towards DP17 amylose. It is filed as biochemical.
Description: as §1

Assay [3] deals with T3, glucoamylase G2 form from Aspergillus niger (Aspergillus niger, UniProt P69328).
T3 construct: purchased Novo Nordisk, Bagsvaerd, Denmark
T3 sequence (P69328 other isoform, or with tags, fused parts or gaps): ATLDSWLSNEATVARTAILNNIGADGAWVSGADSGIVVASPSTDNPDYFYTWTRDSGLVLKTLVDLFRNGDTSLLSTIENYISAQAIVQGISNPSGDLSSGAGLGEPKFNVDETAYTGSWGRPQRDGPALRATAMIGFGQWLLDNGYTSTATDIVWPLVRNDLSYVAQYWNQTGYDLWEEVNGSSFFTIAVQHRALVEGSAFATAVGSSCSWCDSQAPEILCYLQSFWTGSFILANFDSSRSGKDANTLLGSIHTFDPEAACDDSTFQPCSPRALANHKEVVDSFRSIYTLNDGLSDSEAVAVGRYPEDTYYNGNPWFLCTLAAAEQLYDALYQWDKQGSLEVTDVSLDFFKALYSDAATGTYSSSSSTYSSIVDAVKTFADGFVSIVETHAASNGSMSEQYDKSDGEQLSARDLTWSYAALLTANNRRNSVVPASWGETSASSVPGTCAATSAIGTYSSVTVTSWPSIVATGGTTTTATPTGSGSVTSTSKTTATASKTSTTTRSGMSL
Briefly: Inhibition of glucoamylase G2-catalyzed hydrolysis of maltose. It is filed as biochemical. As to the method: The glucoamylase G2 form from Aspergillus niger was purified from a commercial enzyme (Novo Nordisk, Bagsvaerd, Denmark) as described.^19,20 The initial rates of glucoamylase G2-catalyzed hydrolysis of maltose was tested with 1 mM maltose as substrate in 0.1 M sodium acetate pH 4.5 at 45° C. using an enzyme concentration of 7.0×10^−8 M and five inhibitor concentrations in the range 1 μm-5 mM. The effect of the inhibition on rates of substrate hydrolysis were compared for the different compounds.

Assay [4] concerns the target T4, Maltase Glucoamylase (MGA) (Homo sapiens, UniProt O43451). Briefly: Inhibition of recombinant human maltase glucoamylase (MGA), maltose substrate, glucose oxidase readout. It is filed as biochemical. The settings on record: for Ki: maltose substrate, 100 mM MES buffer pH 6.5, 37° C., read-out: Ki value against recombinant human maltase glucoamylase (MGA); for IC50: read-out: IC50 value against recombinant human MGA. How it is done: Enzyme Activity Assay. Analysis of MGA inhibition was performed using maltose as the substrate, and measuring the release of glucose. Reactions were carried out in 100 mM MES buffer pH 6.5 at 37° C. for 15 min. The reaction was stopped by boiling for 3 min. 20 μL aliquots were taken and added to […] of glucose oxidase assay reagent (Sigma) in a 96-well plate. Reactions were developed for 1 hour and absorbance was measured at 450 nm to determine the amount of glucose produced by MGA activity in the reaction. One unit of activity is defined as the hydrolysis of one […] of maltose per minute. All reactions were performed in triplicate and absorbance measurements were averaged to give a final result.
The program GraFit 4.0.14 was used to fit the data to the Michaelis-Menten equation and estimate the kinetic parameters, Km and Vmax, of the enzyme. Ki values for each inhibitor were determined by measuring the rate of maltose hydrolysis by MGA at varying inhibitor concentrations. Data were plotted in Lineweaver-Burk plots (1/rate vs. 1/[substrate]) and Ki values were determined by the equation Ki=Km[I]/(Vmax)m−Km, where “m” is the slope of the line. The Ki reported for each inhibitor was estimated by averaging the Ki values obtained from each of the different inhibitor concentrations.
Target sequence in this assay (O43451 87-954 limits assumed): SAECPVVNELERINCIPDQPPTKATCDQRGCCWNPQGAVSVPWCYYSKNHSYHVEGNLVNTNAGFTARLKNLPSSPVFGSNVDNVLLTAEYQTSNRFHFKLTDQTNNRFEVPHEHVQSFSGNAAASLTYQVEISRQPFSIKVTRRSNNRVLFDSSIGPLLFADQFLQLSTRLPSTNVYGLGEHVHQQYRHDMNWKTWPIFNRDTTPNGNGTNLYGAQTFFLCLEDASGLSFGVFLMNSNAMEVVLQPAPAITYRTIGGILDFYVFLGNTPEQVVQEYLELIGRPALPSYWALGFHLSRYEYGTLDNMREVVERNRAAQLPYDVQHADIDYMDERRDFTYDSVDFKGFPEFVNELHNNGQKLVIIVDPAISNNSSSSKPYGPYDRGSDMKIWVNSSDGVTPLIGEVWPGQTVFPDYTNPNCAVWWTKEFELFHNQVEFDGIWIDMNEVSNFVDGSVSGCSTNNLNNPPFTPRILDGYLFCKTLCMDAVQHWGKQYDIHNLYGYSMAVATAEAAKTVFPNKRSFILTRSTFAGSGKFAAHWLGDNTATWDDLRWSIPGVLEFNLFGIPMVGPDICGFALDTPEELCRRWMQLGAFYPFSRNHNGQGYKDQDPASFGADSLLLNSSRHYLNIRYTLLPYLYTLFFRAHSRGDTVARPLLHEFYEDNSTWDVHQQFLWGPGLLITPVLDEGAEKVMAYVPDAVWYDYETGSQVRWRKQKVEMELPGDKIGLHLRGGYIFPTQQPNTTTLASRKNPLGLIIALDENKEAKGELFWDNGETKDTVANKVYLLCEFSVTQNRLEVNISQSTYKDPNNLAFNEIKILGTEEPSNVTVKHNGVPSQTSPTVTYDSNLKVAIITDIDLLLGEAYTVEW

The test system of a further assay is Sprague-Dawley rats. Briefly: In vivo maltose gavage in catheterized rats: plasma glucose and insulin. On the set-up: species or system rat. The conditions noted are these: maltose gavage 1000 mg/kg with 25 mg/kg drug. How it is done: Five week old Sprague-Dawley rats were housed singly under a 12:12-h light-dark photoperiod and given free access to water and rat chow (Purina rodent chow). After one week of acclimation, chronic indwelling catheters were implanted.
Animals were anesthetized with a combination of Ketamine-Xylazine-Butorphanol (0.1 ml/100 g im). Analgesic (Butorphenol, 1 mg/kg sc) was administered following recovery from anesthesia and the following morning. Antibiotic was administered by one dose sc and in the drinking water for 4 days post-operative (Baytril, 5 mg/kg sc, Bayer, Toronto, Canada; Baytril, 50 mg/ml: 0.36 ml solution in 250 ml drinking water). A sterile catheter (Intramedic PE-50 with ˜3 cm beveled Silastic tip) was placed in the left carotid artery and the distal end of the catheter was tunneled subcutaneously, exteriorized, and anchored at the nape of the neck. The catheters were protected from chewing by a stainless steel tether connected to a swivel system which allowed free movement of the animal and easy access to the catheter by the investigator.
The animals were allowed to recover for 1 week. Experiments were performed on conscious, unrestrained animals that had been fasted overnight by removal of chow from the cage hoppers at 2100. At 0800 the following morning animals were weighed and Atropine (0.05 mg/kg sc) was administered as a […]. At baseline, animals were administered a bolus of maltose by oral gavage (1000 mg/kg body weight) with or without drug (25 mg/kg body weight for all agents). Blood samples (0.1 mL) were taken via the implanted carotid line at -15 and -5 min for the baseline and at 7, 15, 30, 60, 90, 120, 210, 300 min.
Blood samples were kept on ice in microcentrifuge tubes and then were centrifuged. The plasma was stored at −20° C. until it was assayed. Plasma volume was triple replaced with heparinized saline (10u/mL), but red blood cells were not reinfused. Plasma glucose was assayed with the glucose oxidase method (Trinder RAICHEM Division of Hemagen Diagnostics, Inc. San Diego, Calif.). Plasma insulin concentrations were measured by rat insulin ELISA (Crystal Chem INC, Downers Grove, Ill.). Six experiments were performed for each treatment (control, Blintol, Acarbose, Salacinol).
All data are presented as means±SE. The significance of changes in plasma glucose and insulin were tested by two-way repeated-measures analysis of variance and were performed with the Statistical Analysis System for Windows (version 6.3, SAS Institute, Cary, N.C.). AUCs were compared using unpaired t-tests.

Assay [5] deals with T4, Maltase Glucoamylase (MGA). Briefly: MGA activity in extracts of COS cells transfected with MGA5′ (maltase subunit) construct, maltose hydrolysis, glucose oxidase colorimetric assay. It counts as biochemical. Details: COS cells transfected with MGA5′ (maltase subunit clone 10) construct were used; expressed in transfected cells; host or cells: COS cells. The conditions noted are these: 5 μM concentration, COS cell extracts containing MGA; read-out: percent inhibition of the breakdown of maltose. As to the method: In the assays, COS cells transfected with MGA5′ (maltase subunit clone 10) construct were used. Activity measurements were performed with cell extracts containing MGA. Maltose hydrolysis was monitored by measurement of the glucose released by a glucose oxidase colorimetric assay. Inhibition of this hydrolysis was measured as a reduction in OD reading.
In practice, an OD reading in the absence of the inhibitor was recorded, followed by a reading in the presence of the inhibitor. The percent reduction in OD reading upon administering a candidate inhibitor (see Table 11) was then correlated with a percent inhibition for a given concentration.
Target sequence in this assay (O43451 356-737 limits assumed): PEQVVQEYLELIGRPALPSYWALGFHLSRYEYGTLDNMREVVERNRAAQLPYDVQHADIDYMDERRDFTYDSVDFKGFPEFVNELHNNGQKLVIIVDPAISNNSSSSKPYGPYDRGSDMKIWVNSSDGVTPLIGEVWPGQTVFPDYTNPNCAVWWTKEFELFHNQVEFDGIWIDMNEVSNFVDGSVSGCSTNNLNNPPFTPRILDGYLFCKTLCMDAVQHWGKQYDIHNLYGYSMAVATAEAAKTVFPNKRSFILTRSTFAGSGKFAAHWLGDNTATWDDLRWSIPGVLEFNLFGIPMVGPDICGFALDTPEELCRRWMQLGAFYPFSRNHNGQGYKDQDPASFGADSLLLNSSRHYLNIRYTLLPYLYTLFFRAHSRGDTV

Where [6] appears, read: read-out: Ki AMY1 (Barley α-amylase).
Setting [7] is: read-out: Ki PPA (Porcine pancreatic α-amylase).

Where a name gives a salt, the structure may show the parent alone. Read-outs that look alike come from different tables or passages of the source.

T1 sequence (P00693 25-438): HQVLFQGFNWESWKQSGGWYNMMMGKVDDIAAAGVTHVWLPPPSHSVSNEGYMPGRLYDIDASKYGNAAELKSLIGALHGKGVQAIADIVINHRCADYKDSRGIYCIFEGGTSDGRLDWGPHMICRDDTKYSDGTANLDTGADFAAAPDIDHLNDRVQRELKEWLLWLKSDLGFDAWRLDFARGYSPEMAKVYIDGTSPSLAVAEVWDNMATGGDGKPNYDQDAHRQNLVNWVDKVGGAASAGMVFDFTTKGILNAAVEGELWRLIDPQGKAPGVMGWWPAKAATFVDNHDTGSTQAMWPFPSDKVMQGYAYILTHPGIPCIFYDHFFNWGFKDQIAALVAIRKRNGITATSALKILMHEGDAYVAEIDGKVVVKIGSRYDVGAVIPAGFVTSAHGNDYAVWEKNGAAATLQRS

What is called Ki is a measure of affinity in units of concentration, obtained from inhibition or displacement. For the molecule `OC1C[S+]2CCCC2[C@@H](O)C1O` (stereo partly drawn), the Ki in assay [1] (setting [6]) was greater than 5000 µM; in assay [2] (setting [7]), greater than 5000 µM; in assay [3] (read-out: Ki GA (Glucoamylase)), 1320 µM.

On to `O=S(=O)([O-])O[C@H](CO)[C@@H](O)C[S@@+]1C[C@H](O)[C@@H](O)[C@@H]1CO`, for which the Ki was greater than 5000 µM in assay [1] (setting [6]), greater than 5000 µM in assay [2] (setting [7]) and 2170 µM in assay [3].

As for `O=S(=O)([O-])O[C@H](CO)[C@@H](O)C[S@+]1C[C@@H](O)[C@H](O)[C@H]1CO`, the Ki in assay [1] (setting [6]) is greater than 5000 µM; in assay [2] (setting [7]), greater than 5000 µM; in assay [3], 1060 µM.

For `O=S(=O)([O-])O[C@@H](CO)[C@H](O)C[S@+]1C[C@H](O)[C@@H](O)[C@H]1CO`, the Ki in assay [1] (setting [6]) is 109 µM; in assay [2] (setting [7]) it was 52 µM; in assay [3] it was greater than 5000 µM.

`O=S(=O)(O)O[C@@H](CO)[C@H](O)CN1C[C@H](O)[C@@H](O)[C@H]1CO`: the Ki in assay [1] (setting [6]) was greater than 5000 µM; in assay [2] (setting [7]) it was greater than 5000 µM; in assay [3] (read-out: Ki GA (Glucoamylase)), greater than 30000 µM.

For the molecule `O=S(=O)([O-])O[C@H](CO)[C@@H](O)C[Se@+]1C[C@@H](O)[C@H](O)[C@H]1CO`, the results for the Ki in assay [1], in assay [2] and in assay [3] (read-out: Ki GA (Glucoamylase)) were greater than 5000 µM, greater than 5000 µM and greater than 9000 µM, respectively.

Regarding `O=S(=O)(O)OC(C(O)CN1CC(O)C(O)C1CO)C(O)C(O)CO` (single isomer, unassigned) [Compound 193], in assay [4], the Ki came to 26 µM.

`O=S(=O)(O)OC(C(O)CN1CC(O)C(O)C1CO)C(O)C(O)CO` (single isomer, unassigned) [Compound 196]: in assay [4], the Ki was 5 µM.

The term IC50 denotes the concentration at which inhibition is half-maximal. Turning to `O=S(=O)(O)OC(C(O)CN1CC(O)C(O)C1CO)C(O)C(O)CO` (single isomer, unassigned) [Compound 252], the IC50 in assay [4] was determined as 100 µM.

For the molecule `O=S(=O)(O)OC(C(O)CN1CC(O)C(O)C1CO)C(O)C(O)CO` (single isomer, unassigned) [Compound 255], the 50% inhibitory concentration (IC50) in assay [4] worked out at 30 µM.

By inhibition is commonly meant how much of the control response was suppressed. `C[C@H]1O[C@H](O[C@H]2[C@H](O)[C@@H](O)[C@@H](O[C@H]3[C@H](O)[C@@H](O)C(O)O[C@@H]3CO)O[C@@H]2CO)[C@H](O)[C@@H](O)[C@@H]1N[C@H]1C=C(CO)[C@@H](O)[C@H](O)[C@H]1O` (stereo partly drawn) [Acarbose]: the “time at which plasma glucose returned to basal” value in the assay on Sprague-Dawley rats turned out to be 90 min. Further, the “15 minute glucose excursion from basal” value in the assay with Sprague-Dawley rats (mean ± SE, n=6) was found to be 34.2 ± 3.5 mg/dL. Moreover, the “decrease of the 90 minute insulin AUC” value in the assay with Sprague-Dawley rats (versus Control) came out at 49%. The inhibition at 5 µM in assay [5] amounted to 4%.

In the case of `O=S(=O)([O-])O[C@@H]([C@H](O)C[S@+]1C[C@@H](O)[C@H](O)[C@H]1CO)[C@@H](O)CO` [Compound 94, 1,4-Dideoxy-1,4-[[2S,3R,4S-2,4,5-trihydroxy-3-(sulfooxy)pentyl]episufonium-ylidene]-D-arabinitol], in assay [4], the “inhibitory activity against recombinant human MGA (in words)” value (“inhibitory activity” below) is on record as “did not inhibit”.

For the molecule `O=S(=O)([O-])O[C@H]([C@H](O)[C@@H](O)CO)[C@H](O)C[S@+]1C[C@@H](O)[C@H](O)[C@H]1CO` [Compound 95, 1,4-Dideoxy-1,4-[[2S,3R,4R,5S-2,4,5,6-tetrahydroxy-3-(sulfooxy)hexyl]episufonium-ylidene]-D-arabinitol], in assay [4], the “inhibitory activity” value is listed as “active”.

Regarding `O=S(=O)([O-])O[C@@H]([C@H](O)[C@@H](O)CO)[C@H](O)C[S@+]1C[C@@H](O)[C@H](O)[C@H]1CO` [Compound 96, 1,4-Dideoxy-1,4-[[2S,3S,4R,5S-2,4,5,6-tetrahydroxy-3-(sulfooxy)hexyl]episufonium-ylidene]-D-arabinitol], the “inhibitory activity” value in assay [4] was “active”.

For the molecule `O=S(=O)([O-])O[C@@H]([C@H](O)CO)[C@H](O)C[S@+]1C[C@@H](O)[C@H](O)[C@H]1CO` [Compound 97, 1,4-Dideoxy-1,4-[[2S,3S,4R-2,4,5-trihydroxy-3-(sulfooxy)pentyl]episufonium-ylidene]-D-arabinitol], the Ki in assay [4] was found to be 0.17 µM.

In the case of `O=S(=O)([O-])OC(C(O)C[S+]1CC(O)C(O)C1CO)C(O)C(O)CO` [Compound 192, 1,4-Dideoxy-1,4-[[(2R,3S,4R,5R)-2,4,5,6-tetrahydroxy-3-(sulfooxy)hexyl]-episulfoniumylidene]-D-arabinitol Inner Salt], the “inhibitory activity” value in assay [4] was “not active”.

Consider `O=S(=O)([O-])O[C@@H](CO)[C@H](O)C[S@+]1C[C@@H](O)[C@@H](O)[C@H]1CO` [Compound 233, 1,4-Dideoxy-1,4-[[(2S,3S)-2,4-dihydroxy-3-(sulfooxy)butyl]-(S)-episulfoniumylidene]-D-lyxitol Inner Salt], for which, in assay [4], the “inhibitory activity” value is on record as “not effective inhibitors”.

Turning to `O=S(=O)([O-])O[C@@H](CO)[C@H](O)C[S@+]1C[C@H](O)[C@H](O)[C@H]1CO` [Compound 234, 1,4-Dideoxy-1,4-[[(2S,3S)-2,4-dihydroxy-3-(sulfooxy)butyl]-(R)-episulfoniumylidene]-D-ribitol Inner Salt], the “inhibitory activity” value in assay [4] is reported as “not effective inhibitors”.

The record behind these values is patent publication US8389565B2, “Glycosidase inhibitors and methods of synthesizing same” (Simon Fraser University, priority 2000, dated 2013).
